The results in this text go back to PubChem BioAssay AID504609 (Sanford-Burnham Center for Chemical Genomics, 2011).

Active and inactive are the calls of the source.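 How the source made its calls: active means IC50 under a set limit, which marks the compound as nonspecific in this counterscreen; inactive means the rest.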

By IC50 is commonly meant the concentration at which inhibition is half-maximal.

In this test the target is SaOS-2 dox-inducible full-length luciferase, luminescence counterscreen. The experiment in a line: full-length luciferase signal inhibition, dose response, counter-screen for Mdm2/MdmX interaction inhibitor project, cell-based, SaOS-2, dox-inducible (AID 504609).
`CCOC(=O)/C=C/C(=O)OCC(=O)NC(c1ccccc1)c1ccccc1`: the half-inhibitory concentration (IC50) is 2.41 µM.
Consider `COCCn1c(C)cc(C2=NNC(=Nc3ccccc3F)SC2)c1C`, for which the concentration for half-maximal inhibition (IC50) is 0.137 µM.
With `CCN1C/C(=C/c2ccc(OC)c(O)c2)C(=O)/C(=C/c2ccc(OC)c(O)c2)C1` the figure was 7.64 µM; with `COc1ccc(-c2cc3c(=O)n(CC(=O)NCCCN4CCC(N5CCCCC5)CC4)nc(C)n3n2)cc1`, 15.5 µM.
With `O=c1oc2ccccc2cc1-c1cn(-c2ccccc2)c(=S)[nH]1` the figure was 2.38 µM.
On to `CC(C)c1cccc(O)c(=O)c1`, for which the 50% inhibitory concentration (IC50) was 2.27 µM.
For `C/C(=N\Nc1cc(C)nc(-c2ccccc2O)n1)c1ccccc1O` the value was 11.5 µM; for `CC(=O)c1ccc(-c2ccc(C(=O)Nc3nc(-c4ccccn4)cs3)o2)cc1`, 5.78 µM.
Take `O=[N+]([O-])c1ccccc1S(=O)(=O)Nc1cccc2cccnc12`: the IC50 was 2.67 µM.
As to `O=C(/C=C/c1c(F)cccc1Cl)c1ccc(O)cc1`, the IC50 was 6.23 µM.
For `Cc1cccn2c(=O)c3cc(C(=O)NCCc4ccccc4)c(=N)n(Cc4ccco4)c3nc12` the value was 3.58 µM.
With `CCN(CC)S(=O)(=O)c1ccc(NC(=O)c2cccnc2Cl)c(NC(=O)c2cccnc2Cl)c1`, the IC50 is 5.16 µM.
With `Cc1nc(NC2=NCN(CCCN3CCOCC3)CN2)nc2c(C)cccc12` the figure was 13.8 µM; with `Cn1nc([N+](=O)[O-])nc1Sc1nnc(-c2ccccc2)o1`, 7.44 µM.
With `CCOC(=O)c1ccc(Nc2nc(N)c3cc(OC)c(OC)cc3n2)cc1`, the IC50 is > 79 µM (inactive).
With `O=C(CN1CCCc2ccccc21)N/N=C/c1c(O)ccc2ccccc12` the figure was 1.57 µM; with `CC1(C)C(=O)Nc2ccccc2N1C(=O)Cn1ncc(Cl)c(Cl)c1=O`, 8.88 µM; with `CCOc1cc(N2CCOCC2)c(OCC)cc1NC(=O)COc1cccc2cccnc12`, 12.5 µM.
For `COc1cc(-c2nc(-c3ccc(NC(=O)c4ccc5c(c4)OCO5)cc3)no2)cc(OC)c1OC` the value was 3.87 µM; for `COc1ccc2c(c1)C1(Nc3ccccc3-c3nc4ccccc4n31)C(=O)N2C` (stereo not given), 1.75 µM.
